The subject of this assay is viral infection. Nature of the assay: Subjects with symptoms of viral infection treated with disclosed medicinal compositions (symptom improvement / recovery). The note with it: Patient 6; one paracetamol/acetaminophen on Day 1 of symptoms. In kind it is in vivo, human. The source says:
The disclosed compositions are useful in reducing symptoms and/or eliminating viruses in persons suffering from a viral infection or believed to be suffering from a viral infection. Eliminating a virus or an infection from a subject, as used herein, may be referred to as ‘curing’ a subject, for example wherein a subject that has tested positive for the virus (by DNA, RNA, protein, and/or antibody analysis) has no detectable virus (by the same or a different method) after treatment. In these subjects, adults may be administered about 2 ml to about 150 ml per composition per day as a single dose or separated into multiple doses. In some embodiments the subject may be administered the disclosed compounds once, twice, three, or more times a day. In some embodiments, for example, an adult may be administered about 5 ml to about 150 ml of each medicinal composition each day. In many embodiments, (for example where the dose is 15 ml/day) 5 ml is administered 3 times per day as a 5 ml dose. In other embodiments, a 5 ml/day dose may also be divided into 3 or more smaller doses for administration throughout the day—for example about 2 ml three times per day. […]

Take `CC(=O)Nc1ccc(O)cc1` [paracetamol/acetaminophen]: the effect on symptoms entry was “symptoms persisted”.

The values are drawn from US20230405069A1, “METHODS OF TREATING AND […] CORONAVIRUS AND OTHER INDICATIONS, AND COMPOSITIONS FOR USE WITH SAME” (priority 2020, published 2023).
